Data set [1] is described as follows: Selenium stability in sterilized multi trace element solutions, recovery of initial concentration (Example 4, FIGS. 1-3). The note with it: for Selenium concentration during storage: FIGS. 1-3. The text has this:
FIGS. 1-3: The recovery of the initial concentration of the different trace elements in percent (%) is indicated on the Y-axis of the Figures. The analyzed timepoints are is indicated on the X-axis. The timepoint −0.5 corresponds to the results of TE dosage on unsterilized sample at T0. Timepoint 0 corresponds to the results of TE dosage right after sterilization. Timepoint 0.5 correspond to the results of TE dosage after an accelerated stability stress cycle (i.e. three repetition of alternatively 5° C./50° C., 48 h/48 h). Timepoints 1, 3 and 6 correspond to the results of TE dosage after 1 month, 3 months and 6 months storage at 40° C./25% RH.
For the three tested solutions containing different forms of selenium, the selenium is mixed with other TE (Zn, Cu, Mn, F, I, Mo, Cr, Fe), which were introduced as chloride salts. The solutions were acidified to pH 2.2 using malic acid and underwent terminal heat sterilization prior to storage.

For data set [2] the following is noted: Pediaven, trace elements in the glucose chamber; announced July 2014; cited from earlier work.
Data set [3] in a line: Storage stability of selenium sources in a separate chamber (Example 3). The note with it: separated chamber, alone or together with other trace elements; after 6 months storage at 40° C./25% RH. The text has this: Selenate was introduced with other trace elements into a separate chamber from macronutrients.
For data set [4] the following is noted: cited from earlier work.
The mark [5] stands for this setting: mixed with other TE, pH 2.2 with malic acid, terminal heat sterilization, storage at 40° C./25% RH, selenate and selenomethionine compared with selenite.
Setting [6] is: mixed with other TE, pH 2.2 with malic acid, terminal heat sterilization.

With `O=[Se](O)O` [selenite, reference compound], the “Stability of selenium after storage for three months” value (“Stability of selenium after storage” below) in data set [1] (setting [5]) was “lack of stability”.
For the compound `O=[Se]=O` [selenium dioxide], the “Presence of selenium in the finished product” value in data set [2] is reported as “absent in the finished product”.
On to `C[Se]CC[C@H](N)C(=O)O` [selenomethionine], for which the “Selenium concentration during storage” value in data set [1] (setting [6]) is listed as “remained stable”. Besides, the “Stability of selenium after storage” value in data set [1] (pH 2.2) is “better stability”.
For the compound `N[C@@H](C[SeH])C(=O)O` [selenocysteine], the Stability in solution entry in data set [3] is “remained stable”.
With `[Na+].[Na+].[O]=[Mo](=[O])([O-])[O-]` [Na2MoO4, 2H2O, sodium molybdate], the “Chemical form; Solubility in water” value in data set [4] is below 840 g/L.
With `O=[Se](=O)(O)O` [sodium selenate], the Stability in solution result in data set [3] was “remained stable”. Besides, the “Selenium concentration during storage” value in data set [1] (setting [6]) is reported as “remained stable”. Also, in data set [1] (setting [5]), the “Stability of selenium after storage” value is given as “better stability”.

(Values after patent US20230129595A1, “PARENTERAL NUTRITION SOLUTION COMPRISING A SELENIUM SOURCE” (BAXTER INTERNATIONAL INC., priority 2019, published 2023).)
